# Measurements reported in patent publication US10668109B2, “Conditioning protocols and use of same for tissue regeneration” (Yeda Research and Development Co. Ltd., priority 2015, dated 2020).
# How the values were obtained:
# [1] = system: pulmonary Clara cells; test: Naphthalene lung injury model, ablation of Clara cells; type: in vivo, mouse; settings: naphthalene alone, C57BL mice
# Description: For lung injury studies, mice were given an intraperitoneal injection of naphthalene (NA) (more than 99% pure; Sigma-Aldrich), dissolved in corn oil, 200 mg per kg body weight, 40-48 hours before transplantation of embryonic lung tissue. To that end, these cells were initially evaluated in a model based on injury induction with naphthalene, as previously described [[…] et al, American Journal of Physiology-Lung Cellular and Molecular Physiology. (1995) 269(6):791]. This lung injury model mimics lung diseases caused by mild epithelial injury, detectable by changes in the expression of pulmonary Clara cells. The particular anatomical localization of Clara cells in respiratory bronchioles and in broncho-alveolar junctions enabled to accurately localize the site of injury after naphthalene exposure, and to test the ability of a single cell suspension of embryonic “window” cells to colonize and restore the injured epithelial layer in syngeneic recipients.
# [2] = system: endogenous lung progenitors; test: BrdU incorporation assay (lung cell proliferation in vivo); design: species or system mouse
# Description: Lung cell proliferation was measured in vivo by BrdU uptake. Briefly, control and four groups of experimental mice (7 days following naphthalene administration and 5 days after TBI) received a single dose of BrdU (Sigma) intraperitoneally 120 minutes before sacrifice (at a dose of 50 mg per kg of body weight). Lungs were excised, left lungs were enzymatically digested (using the same protocol as for embryonic tissue dissociation) for polychromatic FACS analysis, and right lungs were fixed with 4% PFA and processed for further immunofluorescence staining. Multiple serial slices were costained with anti-BrdU-FITC and anti-CCSP or anti-SPC antibodies. All FACS and immunohistochemical studies were done using the BrdU flow kit (BD Biosciences), according to the manufacturer's instructions. For morphometric analysis of CCSP^+BrdU^+ and SPC^+BrdU^+ cells, images were stained with anti-CCSP and anti-BrdU or anti-SPC and anti-BrdU antibodies and nuclei counterstained with Hoechst dye. The images were acquired by an observer blinded to the treatment groups, using an Olympus fluorescent microscope and Olympus digital camera (DP70) with a ×40 objective. At least 20 different stained random fields were counted for each marker.
# [3] = system: C57BL/6 mice, recipient lungs; test: Assessment of GFP+ foci in chimeric lungs by morphometry after different conditioning regimens; type: in vivo, mouse; settings: for engraftment / lung chimerism of donor-derived cells: conditioning with NA alone, 1×10^6 E16 lung cells 2 days after NA; for donor-derived foci: E16 lung cells
# Description: For lung injury studies, mice were given an intraperitoneal injection of naphthalene (NA) (more than 99% pure; Sigma-Aldrich), dissolved in corn oil, 200 mg per kg body weight, 40-48 hours before transplantation of embryonic lung tissue. For ‘double’ lung injury, naphthalene-treated animals were further irradiated in a cesium irradiator (Gammacell 40), (40-48 hours after naphthalene administration). C57BL/6, tdTomato (Gt(ROSA)26Sortm4(ACTB-tdTomato,-EGFP)Luo/J mice, and Rag1^−/− mice were irradiated with 6 Gy TBI, and NOD-SCID mice were irradiated 3-4 Gy TBI. Following conditioning with NA, TBI, or both, C57BL/6 mice were transplanted with 1×10^6 GFP-positive E15-E16 embryonic lung cells injected into the tail vein 4-8 hours following irradiation. Lungs were fixed with a 4% PFA solution introduced through the trachea under a constant pressure of 20 cm H2O. Then the lungs were immersed in fixative overnight at 4° C. Lungs were processed after PFA treatment and fixed in 30% sucrose and frozen in Optimal Cutting Temperature (OCT) compound (Sakura Finetek USA, Inc. Tissue-Tek). Serial step sections, 12 μm in thickness, were taken along the longitudinal axis of the lobe. The fixed distance between the sections was calculated so as to allow systematic sampling of at least 20 sections across the whole lung. Lung slices were analyzed by fluorescence microscopy. The actual number of GFP^+ foci (a group of more than 5 distinct GFP^+ cells was defined as a single patch) was counted per slice using Image Pro software. The area of each slice was estimated by Image Pro software, and the average area of slices and average frequency of GFP^+ patches in all the slices were assessed (patch(P)/Area(A) (mm2)), assuming that the frequency per area in a large number of slices reflects distribution per volume.
smiles,measurement,setting,value
c1ccc2ccccc2c1 [naphthalene],ablation of Clara cells,[1],transient
same,endogenous cell recovery,[2]; 6 Gy TBI 48 hrs after NA treatment,inhibited
same,"level of BrdU+ cells within endothelial, epithelial and mesenchymal lineages (FACS)",[2]; 6 Gy TBI administered 48 hrs after NA,significantly reduced
same,ablation of endogenous pool of progenitors,[2]; 6 Gy TBI prior to NA treatment,did not effectively ablate the endogenous pool of progenitors
same,endogenous BrdU+ proliferating cells,"[2]; NA alone, no transplantation",marked signal of endogenous BrdU^+ proliferating cells
same,GFP positive patches (engraftment of donor-derived cells),"[3]; NA and 6 Gy TBI vs TBI alone or NA alone, 30 days post transplant",markedly enhanced
same,engraftment / lung chimerism of donor-derived cells,[3],could not enable significant engraftment
same,engraftment / lung chimerism of donor-derived cells,[3]; listed as NA,failed to attain a detectable level of lung chimerism
same,donor-derived foci,"[3]; conditioning with naphthalene alone, 30 days post transplant",10-12 foci/mm^3
same,donor-derived foci,"[3]; conditioning with naphthalene and 6 Gy TBI, 30 days post transplant",55 foci/mm^3
